Assay results reported in patent publication US10934295B2, “Antimicrobials and methods of making and using same” (BIOVERSYS AG, priority 2016, dated 2021).

Assays:
[1] = test system: Staphylococcus aureus (S. aureus) 11540 strain; assay: standard microdilution assay, minimum inhibitory concentration (MIC); format: cell-based
Procedure: (§1) The in vitro activity of the compounds of the present disclosure can be determined. Antimicrobial testing is typically performed to determine the minimum inhibitory concentration (MIC). Minimum inhibitory concentrations (MICs) are determined by the microdilution method in a final volume of 100 μl according to protocols outlined by The Clinical and Laboratory Standards Institute (CLSI). Performance standards for reference strains are assessed within the same experimental design to maintain quality control. See, for example, Clinical Laboratory Standards Institute: Methods for dilution antimicrobial susceptibility tests for bacteria that grow aerobically M7-A8. Approved Standard-Eighth Edition. Wayne, Pa.: CLSI; December 2008; and Clinical Laboratory Standards Institute: Performance Standards for Antimicrobial Susceptibility Testing M100-S20; Approved Standard-Twentieth Edition. Wayne, Pa.: CLSI; June 2010. The compounds of the present disclosure were tested for antimicrobial activity. The Compounds 1-32 were run against Eschericia colt (E. coli) strain ATCC25922 and against Staphylococcus aureus (S. aureus) 11540 strain using a standard microdilution assay to determine minimum inhibitory concentrations (MICs). […] It will be recognized by one skilled in the art that the compounds can be assessed against other bacterial organisms and that the presentation of data for activity against Eschericia colt and Staphylococcus aureus are illustrative and in no way is intended to limit the scope of the present disclosure. The compounds of the present disclosure can be assayed against a range of other microorganisms depending upon the performance activity desired to be gathered. Furthermore, the “+” and “−” representation and the selection of a cutoff value of 16 micrograms/mL is also illustrative and in no way is intended to limit the scope of the present disclosure.

E. coli strain ATCC25922 = assay: as above; format: cell-based; settings: Escherichia coli
Procedure: as §1

Row | SMILES | MIC [1] | MIC (E. coli strain ATCC25922)
1 | C[C@H](N)CCCc1cc(Cl)c(F)c(-c2cc3cn(-c4ccc(CN[C@@H](C)CCNC(=N)N)c(N5CCOCC5)c4)c(=O)nc3[nH]2)c1 [Compound 16] | ≤ 16 µg/mL | ≤ 16 µg/mL
2 | C[C@H](N)CCCc1cc(Cl)c(F)c(-c2cc3cn(-c4ccc([C@H]5CNC[C@@H](CCNC(=N)N)N5)cc4)c(=O)nc3[nH]2)c1 [Compound 17] | ≤ 16 µg/mL | ≤ 16 µg/mL
3 | C[C@H](N)CCCc1cc(Cl)c(F)c(-c2cc3cn(-c4ccc([C@H]5CNC[C@H](CCNC(=N)N)N5)cc4)c(=O)nc3[nH]2)c1 [Compound 18] | ≤ 16 µg/mL | ≤ 16 µg/mL
4 | C[C@H](N)CCCc1cc(Cl)c(F)c(-c2cc3cn(-c4ccc(C(=O)N[C@H](CCNC(=N)N)CNC(=N)N)cc4)c(=O)nc3[nH]2)c1 [Compound 19] | ≤ 16 µg/mL | ≤ 16 µg/mL
5 | C=C[C@@H](CCNC(=N)N)NC(=O)c1ccc(-n2cc3cc(-c4cc(CCC[C@H](C)N)cc(Cl)c4F)[nH]c3nc2=O)cc1 [Compound 20] | ≤ 16 µg/mL | ≤ 16 µg/mL
6 | C[C@H](N)CCCc1cc(Cl)c(F)c(-c2cc3cn(-c4ccc(C(=O)N[C@H](CCNC(=N)N)CNc5ccccn5)cc4)c(=O)nc3[nH]2)c1 [Compound 21] | ≤ 16 µg/mL | ≤ 16 µg/mL
7 | C[C@H](N)CCCc1cc(Cl)c(F)c(-c2cc3cn(-c4ccc([C@@H]5CNC[C@H](CCNC(=N)N)N5)cc4)c(=O)nc3[nH]2)c1 [Compound 22] | ≤ 16 µg/mL | ≤ 16 µg/mL
8 | C[C@H](N)CCCc1cc(Cl)c(F)c(-c2cc3cn(-c4ccc([C@@H]5CNC[C@@H](CCNC(=N)N)N5)cc4)c(=O)nc3[nH]2)c1 [Compound 23] | ≤ 16 µg/mL | ≤ 16 µg/mL
9 | CSC[C@@H](CCNC(=N)N)NCc1ccc(-n2cc3cc(-c4cc(CCC[C@H](C)N)cc(Cl)c4F)[nH]c3nc2=O)cc1 [Compound 24] | ≤ 16 µg/mL | ≤ 16 µg/mL
10 | C[C@H](N)CCCc1cc(Cl)c(F)c(-c2cc3cn(-c4ccc(C(=O)N[C@@H](CN)CCNC(=N)N)cc4)c(=O)nc3[nH]2)c1 [Compound 25] | ≤ 16 µg/mL | ≤ 16 µg/mL
11 | C[C@H](NCCCNC(=N)N)c1ccc(-n2cc3cc(-c4cc(CCC[C@@H](N)C(F)(F)F)cc(Cl)c4F)[nH]c3nc2=O)cc1 [Compound 26] | ≤ 16 µg/mL | > 16 µg/mL
12 | C[C@H](N)CCCc1cc(Cl)c(F)c(-c2cc3cn(-c4ccc([C@@H](NCCCNC(=N)N)C(F)(F)F)cc4)c(=O)nc3[nH]2)c1 [Compound 27] | ≤ 16 µg/mL | ≤ 16 µg/mL
13 | C[C@H](N)CCCc1cc(Cl)c(F)c(-c2cc3cn(-c4ccc([C@@H](NCCCNC(=N)N)C(F)F)cc4)c(=O)nc3[nH]2)c1 [Compound 28] | ≤ 16 µg/mL | ≤ 16 µg/mL
14 | N=C(N)NCC[C@@H]1CSC[C@@H](c2ccc(-n3cc4cc(-c5cc(CCC[C@@H](N)C6CC6)cc(Cl)c5F)[nH]c4nc3=O)cc2)N1 [Compound 29] | ≤ 16 µg/mL | ≤ 16 µg/mL
15 | C[C@H](N)CCCc1cc(Cl)c(F)c(-c2cc3cn(-c4ccc(CO[C@H](CCNC(=N)N)CNC(=N)N)c(F)c4)c(=O)nc3[nH]2)c1 [Compound 30] | ≤ 16 µg/mL | ≤ 16 µg/mL
16 | CSc1cc(-n2cc3cc(-c4cc(CCC[C@H](C)N)cc(Cl)c4F)[nH]c3nc2=O)ccc1CO[C@H](CCNC(=N)N)CNC(=N)N [Compound 31] | ≤ 16 µg/mL | ≤ 16 µg/mL
17 | COc1cc(-n2cc3cc(-c4cc(CCC[C@H](C)N)cc(Cl)c4F)[nH]c3nc2=O)ccc1CO[C@H](CCNC(=N)N)CNC(=N)N [Compound 32] | ≤ 16 µg/mL | ≤ 16 µg/mL
18 | C[C@H](N)CCCc1cc(Cl)c(F)c(-c2cc3cn(-c4cc(F)c(CO[C@H](CCNC(=N)N)CNC(=N)N)c(F)c4)c(=O)nc3[nH]2)c1 [Compound 56] | ≤ 16 µg/mL | ≤ 16 µg/mL

Continued, values first:

Row | MIC [1] | MIC (E. coli strain ATCC25922) | SMILES
19 | ≤ 16 µg/mL | > 16 µg/mL | C[C@H](N)CCCc1cc(Cl)c(F)c(-c2cc3cn(-c4ccc(CN[C@@H](C)CCNC(=N)N)c(CC(=O)O)c4)c(=O)nc3[nH]2)c1 [Compound 1]
20 | ≤ 16 µg/mL | ≤ 16 µg/mL | CNC(=O)Cc1cc(-n2cc3cc(-c4cc(CCC[C@H](C)N)cc(Cl)c4F)[nH]c3nc2=O)ccc1CN[C@@H](C)CCNC(=N)N [Compound 2]
21 | ≤ 16 µg/mL | ≤ 16 µg/mL | C[C@H](N)CCCc1cc(Cl)c(F)c(-c2cc3cn(-c4ccc([C@@H]5CNC[C@H](CCNC(=N)N)O5)cc4)c(=O)nc3[nH]2)c1 [Compound 5]
22 | ≤ 16 µg/mL | ≤ 16 µg/mL | C[C@H](N)CCCc1cc(Cl)c(F)c(-c2cc3cn(-c4ccc(CN[C@@H](C)CCNC(=N)N)c(S(C)(=O)=O)c4)c(=O)nc3[nH]2)c1 [Compound 6]
23 | ≤ 16 µg/mL | ≤ 16 µg/mL | C[C@H](N)CCCc1cc(Cl)c(F)c(-c2cc3cn(-c4ccc(N5CCNC(CCNC(=N)N)C5)cc4)c(=O)nc3[nH]2)c1 (stereo partly drawn) [Compound 7]
24 | ≤ 16 µg/mL | ≤ 16 µg/mL | C[C@H](N)CCCc1cc(Cl)c(F)c(-c2cc3cn(-c4ccc(CN[C@@H](C)CCNC(=N)N)c([N+](=O)[O-])c4)c(=O)nc3[nH]2)c1 [Compound 8]
25 | ≤ 16 µg/mL | ≤ 16 µg/mL | C[C@H](N)CCCc1cc(Cl)c(F)c(-c2cc3cn(-c4ccc(C(=O)N[C@@H](C)CCNC(=N)N)cc4)c(=O)nc3[nH]2)c1 [Compound 9]
26 | ≤ 16 µg/mL | ≤ 16 µg/mL | C[C@H](N)CCCc1cc(Cl)c(F)c(-c2cc3cn(-c4ccc(C(=O)N[C@@H](CO)CCNC(=N)N)cc4)c(=O)nc3[nH]2)c1 [Compound 10]
27 | ≤ 16 µg/mL | ≤ 16 µg/mL | C[C@H](N)CCCc1cc(Cl)c(F)c(-c2cc3cn(-c4ccc(CN[C@@H](C)CCNC(=N)N)c(N(C)C)c4)c(=O)nc3[nH]2)c1 [Compound 11]
28 | ≤ 16 µg/mL | ≤ 16 µg/mL | COCCOCc1cc(-n2cc3cc(-c4cc(CCC[C@H](C)N)cc(Cl)c4F)[nH]c3nc2=O)ccc1CN[C@@H](C)CCNC(=N)N [Compound 12]
29 | ≤ 16 µg/mL | ≤ 16 µg/mL | C[C@H](N)CCCc1cc(Cl)c(F)c(-c2cc3cn(-c4ccc([C@@H]5CNC[C@@H](CCNC(=N)N)O5)cc4)c(=O)nc3[nH]2)c1 [Compound 14]
30 | ≤ 16 µg/mL | ≤ 16 µg/mL | C[C@H](N)CCCc1cc(Cl)c(F)c(-c2cc3cn(-c4ccc(C(=O)N[C@H](CCNC(=N)N)CNc5ncc[nH]5)cc4)c(=O)nc3[nH]2)c1 [Compound 15]
